pEC50, pIC50: −log10 of the molar value. Several values for one entry are separate records, joined by “and”; a condition that tells them apart may be missing. Equal values may be shown once.
What was measured:
Format in all cases: cell-based
[1] = biological target: T1, Smo::EGFP (Homo sapiens, UniProt Q99835); test: High content assay of Shh-induced Smo::EGFP accumulation in the primary cilium (Smo::EGFP/Ivs::tagRFPT NIH/3T3 cells); settings: 3T3/Smo::GFP/Ivs::tagRFPT cells; stimulus Shh; read-out: IC50, inhibition of Shh-induced Smo::GFP ciliary accumulaton
T1 construct: expressed in transfected cells
Excerpt: (§1) NIH/3T3 cells were maintained in DMEM containing 10% (v/v) calf serum, penicillin, streptomycin, and L-glutamine. HEK293, L, cos 7, and suFU−/− mouse embryonic fibroblast cells were maintained in DMEM containing 10% (v/v) fetal bovine serum, penicillin, streptomycin, and L-glutamine. Smo::EGFP, SmoM2::GFP, and Ivs::tagRFPT were cloned into pBabe to generate retroviral particles for infection. Smo::EGFP/Ivs::tagRFPT and SmoM2::GFP/Ivs::tagRFPT stable cell lines were generated through viral infection of NIH/3T3^12. A ShhLightII Gli reporter cell line was obtained from the American Type Culture Collection (ATCC) and used in luciferase reporter assays to measure Hh pathway activity. The cell line contains a stably integrated Gli-responsive Firefly luciferase reporter and a constitutive Renilla luciferase expression construct^33. Subclones expressing Smo or SmoM2 in ShhLightII cells were used for chemical epistasis analyses.
(§2) Cells were cultured and treated in 384-well imaging plate precoated with poly-D-Lysine (Greiner Bio-one), fixed with 4% paraformaldehyde (Electron Microscopy Sciences), and stained with Hoechst (Invitrogen). Images were collected using Opera High Content Screening System (Perkin Elmer). Activityl)ase (IDBS Inc, Emeryvill, Calif.) and Pipeline Pilot (Accelrys, Inc. San Diego, Calif.) were used for high content screening data management and analysis. Acapella 2.0 software (Evotec Technologies/PerkinElmer) was used to perform multi-parametrical high content image quantification. All the images for comparison were scanned with identical microscopic settings and analyzed with the same input parameters.
(§3) Acapella 2.0 software (Evotec Technologies/PerkinElmer) was used to perform multi-parametric high content image quantification. Our image analysis script used Ivs::tagREPT to first determine the location of the PC and then Smo::EGFP to quantify the level of Smo present in the cilium.
The inventors used the spot-finding algorithm in the RFP channel to find Ivs-rich spots. Each non-overlapping spot was based on a maximum 8 pixel-radius (when using a 40× objective) around a central intensity peak of 5 pixels. A distance of at least 10 pixels was required between adjacent spot centers. Spot peaks had to exceed thresholds of relative intensity compared to the remaining body of the spot as well as to the entire image. The average, maximum and total RFP intensity of each spot were measured. The spots with sufficiently high absolute maxima to pass the selected threshold were classified as positive spots. To form candidate cilia, the inventors selected the brightest 15% of the pixels in each positive spot and merged those pixels into objects so that the brightest parts of adjacent spots could form single, larger cilia-shaped objects. To qualify the candidate cilia as true Ivs-positive cilia, the width of the objects created from merging the brightest pixels in each spot had to be at least 2 pixels and the length to half-width ratio had to exceed 3. (i.e. a 3-pixel long by 2-pixel wide cilium was the minimum accepted cilium size and the length had to be at least 1.5 fold of the width). The mean GFP intensity within these Ivs-positive cilia was used to estimate the ciliary level of Smo protein. The inventors subtracted the background of the mean GFP intensity in the 3-pixel wide area around each candidate cilium to avoid some false positives. Those Ivs-positive cilia that exceed the final mean GFP intensity threshold set for each experiment were deemed Smo-positive cilia.
Hoechst staining was used to determine the total number of nuclei per well.
Measurements of the geometry of the cilia as well as the total fluorescent intensities of each cilium in the Smo- and Ivs-channels were used to determine if any of the compounds were having unusual effects on cilia size, intensity or frequency of observation or combinations of all three characteristics.

[2] = biological target: T1, Smo::EGFP; test: SAG-induced Smo::GFP ciliary accumulation (3T3/Smo::GFP/Ivs::tagRFPT); settings: 3T3/Smo::GFP/Ivs::tagRFPT cells; 100 nM SAG; read-out: IC50, inhibition of SAG-induced Smo::GFP ciliary accumulation
Experimental: as §2, §3
The inventors used the spot-finding algorithm in the RFP channel to find Ivs-rich spots. Each non-overlapping spot was based on a maximum 8 pixel-radius (when using a 40× objective) around a central intensity peak of 5 pixels. A distance of at least 10 pixels was required between adjacent spot centers. […] The average, maximum and total RFP intensity of each spot were measured. […]

[3] = system: Hh pathway activity; test: SAG-induced Gli-luciferase reporter expression (3T3/Shh-LightII); settings: Mus musculus, Shh Light II, 3T3/Shh-LightII cells; 100 nM SAG; read-out: IC50, inhibition of SAG-induced expression of Gli-luciferase reporter
Experimental: Hh activity assays were performed using ShhLightll cells, Smo/Lightll cells, SmoM2/Lightll cells, and suFU−/− mouse embryonic fibroblasts. In the suFU−/− cells, Hh activity was measured after co-transfection with Gli driven firefly luciferase and TK-renilla luciferase reporters^41. Wnt activity was measured in 293 cells co-transfected with Top-flash and TK-renilla luciferase reporters^42. Cells were cultured and treated in 96 well assay plates (Corning) and incubated with Duo-Glo luciferase substrates (Promega) to measure firefly and renilla luciferase activity sequentially using a Top Count NX Microplate Scintillation and Luminescence Counter (Perkin Elmer). The renilla luciferase signal was used to normalize the firefly reporter activity.
ShhLightII cells and SmoM2/LightII cells were cultured and treated in 96 well assay plates (Corning) and incubated with Duo-Glo luciferase substrates (Promega) to sequentially measure firefly and renilla luciferase activity. […] Wnt activity was measured following co-transfection of a Top-flash and renilla luciferase reporter. […] Luciferase signal was read by TopCount NX Microplate Scintillation and Luminescence Counter (Perkin Elmer). Quantitative PCR probes for Ptch1, Gli1, and β-actin were purchased from Applied Biosystems. […]

[4] = biological target: Smo::GFP (Homo sapiens, UniProt Q99835); test: Ciliary accumulation of Smo::GFP upon overexpression (3T3/Smo::GFP Overexpression/Ivs::tagRFPT); settings: stimulus none, read-out: IC50, inhibiton of ciliary accumulation of Smo::GFP upon overexpression
[5] = biological target: T2, SmoM2::GFP (Homo sapiens, UniProt Q99835, W535L); test: Ciliary localization of SmoM2::GFP (3T3/SmoM2::GFP Overexpression/Ivs::tagRFPT)
T2 construct: expressed in transfected cells
Excerpt: as §1, §2, §3

[6] = biological target: T1, Smo::EGFP; test: Cyc-induced Smo ciliary accumulation (Smo::EGFP/Ivs::tagRFPT cells); settings: 5 μM Cyc
Experimental: as §2, §3

[7] = system: Hh pathway activity; test: Gli-luciferase reporter assay, Hh pathway activation by compound alone (NIH/3T3 cells)
Experimental: ShhLightII cells and SmoM2/LightII cells were cultured and treated in 96 well assay plates (Corning) and incubated with Duo-Glo luciferase substrates (Promega) to sequentially measure firefly and renilla luciferase activity. Smo, or GFP, expression plasmids were co-transfected into 3T3 cells together with a Gli-responsive firefly reporter and a TK-renilla luciferase reporter contruct to monitor effects of Smo overexpression. Co-transfection of the two reporter constructs was conducted in assays measuring Hh pathway activity in suFU−/− cells. Wnt activity was measured following co-transfection of a Top-flash and renilla luciferase reporter. In both Hh and Wnt activity assays, renilla luciferase reporter activity, or mass of protein, was used to normalize expression values. Luciferase signal was read by TopCount NX Microplate Scintillation and Luminescence Counter (Perkin Elmer). Quantitative PCR probes for Ptch1, Gli1, and β-actin were purchased from Applied Biosystems. Reactions and measurements were performed using on an Applied Biosystems 7900HT at Harvard FAS Center of System Biology. β-actin was used to normalize Ptch1 and Gil1 values.

T1 sequence (Q99835 28-787): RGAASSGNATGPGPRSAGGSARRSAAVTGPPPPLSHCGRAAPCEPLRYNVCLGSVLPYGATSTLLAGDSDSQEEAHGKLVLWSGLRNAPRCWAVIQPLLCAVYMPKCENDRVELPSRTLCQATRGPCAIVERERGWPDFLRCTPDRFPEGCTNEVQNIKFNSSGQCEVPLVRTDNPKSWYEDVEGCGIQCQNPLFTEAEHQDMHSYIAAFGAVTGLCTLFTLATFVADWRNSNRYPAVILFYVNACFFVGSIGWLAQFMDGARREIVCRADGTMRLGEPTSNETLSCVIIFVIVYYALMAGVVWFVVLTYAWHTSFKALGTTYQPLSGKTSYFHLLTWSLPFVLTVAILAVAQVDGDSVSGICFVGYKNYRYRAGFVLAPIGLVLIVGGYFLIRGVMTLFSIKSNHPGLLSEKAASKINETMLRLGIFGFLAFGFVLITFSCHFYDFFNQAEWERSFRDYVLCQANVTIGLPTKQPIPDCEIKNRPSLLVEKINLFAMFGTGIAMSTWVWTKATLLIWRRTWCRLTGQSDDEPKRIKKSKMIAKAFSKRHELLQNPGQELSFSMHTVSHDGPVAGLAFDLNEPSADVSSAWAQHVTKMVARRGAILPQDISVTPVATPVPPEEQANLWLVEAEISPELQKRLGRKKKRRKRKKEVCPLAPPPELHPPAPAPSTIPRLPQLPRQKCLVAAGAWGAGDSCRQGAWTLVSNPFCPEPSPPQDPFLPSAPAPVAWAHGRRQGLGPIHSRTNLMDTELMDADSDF
T2 sequence (Q99835 28-787 W535L): as the sequence (Q99835 28-787) above, with W508L counted along it
Sequence of Smo::GFP (Q99835 28-787): as the sequence (Q99835 28-787) above

Row | Structure (SMILES) | pIC50 [1] | pIC50 [2] | pIC50 [3] | pIC50 [4] | pIC50 ([5]; 3T3/SmoM2::GFP Overexpression/Ivs::tagRFPT, stimulus none, read-out: IC50, inhibition of ciliary localization of SmoM2::GFP) | effect on SmoM2 ciliary localization ([5]; SmoM2::EGFP overexpressing cells) | effect on Cyc induced Smo cilial accumulation [6] | Hh pathway activation in transcription reporter assay ([7]; FA 10 μM) | transcriptional response in Gli-luciferase reporter assay ([7]; FA >50 μM) | pEC50 ([7]; Mus musculus, NIH3T3, Gli-luciferase reporter, compound alone, read-out: EC50 for weak transcriptional activation)
1 | CCN(CC)c1ccc(/C=N/NC(=O)c2ccc(O)cc2)cc1 [DY131] | 6.10 | ~5.70 and 5.70 | ~5.70 | 7.10 | < 4.52 | failed to inhibit | effectively compete with Cyc |  |  | 
2 | CC1(C)O[C@@H]2C[C@H]3[C@@H]4C[C@H](F)C5=CC(=O)C=C[C@]5(C)[C@@]4(F)[C@@H](O)C[C@]3(C)[C@]2(C(=O)CO)O1 [FA, fluocinolone acetonide] |  |  |  |  |  |  |  | no pathway activation was observed | 4 fold | < 4.30

Source: patent publication US20130274233A1, “MODULATORS OF HEDGEHOG SIGNALING PATHWAY” (priority 2012, published 2013)
